{
  "source": "patent US9695155B2",
  "about": "“Herbicidal substituted pyrimidinyloxy benzene compounds” (E. I. DU PONT DE NEMOURS AND COMPANY, priority 2013, dated 2017)",
  "key": {"spring wheat": {"tested_on": "spring wheat", "assay": "Test D preemergence", "type": "in vivo, Triticum aestivum", "settings": "Triticum aestivum, pre-emergence", "method_in_brief": "(§1)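 Visual ratings from 0 (no effect) to 100 (complete control) relative to untreated plants were taken 7–21 days after treatment. Chemicals in a surfactant-containing solvent mixture were applied preemergence to seeds in silt loam, or postemergence to plants 2–18 cm tall (1–4 leaves) grown in a peat-based potting medium.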"}, "winter wheat": {"tested_on": "winter wheat", "assay": "Test D preemergence", "type": "in vivo, Triticum aestivum", "settings": "Triticum aestivum, pre-emergence", "method_in_brief": "as §1"}, "canarygrass": {"tested_on": "canarygrass", "assay": "Test D postemergence", "type": "in vivo, Phalaris minor", "settings": "Phalaris minor, post-emergence, scale 0 to 100 (0 no effect, 100 complete control), read-out: Plant response rating, Canarygrass", "method_in_brief": "as §1"}, "field violet [1]": {"tested_on": "field violet", "assay": "Test D preemergence", "type": "in vivo, Viola arvensis", "settings": "Viola arvensis, pre-emergence, scale 0-100, read-out: Plant response rating, Field Violet", "method_in_brief": "as §1"}, "oilseed rape": {"tested_on": "oilseed rape", "assay": "Test D preemergence", "type": "in vivo, Brassica napus", "settings": "Brassica napus, pre-emergence, scale 0-100, read-out: Plant response rating, Oilseed Rape", "method_in_brief": "as §1"}, "cocklebur": {"tested_on": "cocklebur", "assay": "Test E preemergence", "type": "in vivo, Xanthium strumarium", "settings": "for Plant response rating, Cocklebur: scale 0 to 100, 0 no effect, 100 complete control", "method_in_brief": "(§2)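 Compound in a non-phytotoxic solvent mixture with surfactant was applied preemergence to seeds in silt loam soil, or postemergence to plants 2 to 18 cm tall grown in peat-based potting medium. Plants were kept in a greenhouse for 14 to 21 days, then rated visually against untreated controls on a 0 (no effect) to 100 (complete control) scale.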"}, "speedwell": {"tested_on": "speedwell", "assay": "Test D preemergence", "type": "in vivo, Veronica persica", "settings": "Veronica persica, pre-emergence", "method_in_brief": "as §1"}, "soybean": {"tested_on": "soybean", "assay": "Test E postemergence", "type": "in vivo, Glycine max", "settings": "Glycine max, post-emergence", "method_in_brief": "as §2"}, "kochia": {"tested_on": "kochia", "assay": "Test D postemergence", "type": "in vivo, Kochia scoparia", "settings": "Bassia scoparia, post-emergence, scale 0 to 100 (0 no effect, 100 complete control), read-out: Plant response rating, Kochia", "method_in_brief": "as §1"}, "field violet [2]": {"tested_on": "field violet", "assay": "Test D postemergence", "type": "in vivo, Viola arvensis", "settings": "Viola arvensis, post-emergence, scale 0 to 100 (0 no effect, 100 complete control), read-out: Plant response rating, Field Violet", "method_in_brief": "as §1"}, "Brazilian crabgrass": {"tested_on": "Brazilian crabgrass", "assay": "Test E postemergence", "type": "in vivo, Digitaria horizontalis", "settings": "Digitaria horizontalis, post-emergence, read-out: Plant response rating, Crabgrass, Brazil", "method_in_brief": "as §2"}, "barnyardgrass": {"tested_on": "barnyardgrass", "assay": "Test E postemergence", "type": "in vivo, Echinochloa crus-galli", "settings": "Echinochloa crus-galli, post-emergence, read-out: Plant response rating, Barnyardgrass", "method_in_brief": "as §2"}, "pigweed": {"tested_on": "pigweed", "assay": "Test D postemergence", "type": "in vivo, Amaranthus retroflexus", "settings": "Amaranthus retroflexus, post-emergence, scale 0 to 100 (0 no effect, 100 complete control), read-out: Plant response rating, Pigweed", "method_in_brief": "as §1"}, "bluegrass": {"tested_on": "bluegrass", "assay": "Test D preemergence", "type": "in vivo, Poa annua", "settings": "Poa annua, pre-emergence, scale 0-100, read-out: Plant response rating, Bluegrass", "method_in_brief": "as §1"}, "[3]": {"settings": "Postemergence, 31 g ai/ha, scale 0 to 100"}, "[4]": {"settings": "Postemergence, 62 g ai/ha, scale 0 to 100"}, "[5]": {"settings": "Postemergence, 125 g ai/ha, scale 0 to 100"}, "[6]": {"settings": "Postemergence, 250 g ai/ha, scale 0 to 100"}, "[7]": {"settings": "postemergence, 16 g ai/ha, scale 0 to 100, 0 no effect, 100 complete control"}},
  "data": [
    {"compound": "N#Cc1cccc(Oc2ncc(Cl)cn2)c1-n1cc(C(F)(F)F)cn1", "note": "[Compound 58, 3-[(5-chloro-2-pyrimidinyl)oxy]-2-[4-(trifluoromethyl)-1H-pyrazol-1-yl]benzonitrile]", "values": [
      {"measurement": "plant injury at 31 g/ha", "setting": "spring wheat; 31 g ai/ha, scale 0 (no effect) to 100 (complete control), read-out: Plant response rating, Wheat, Spring", "value": 0, "unit": "%"},
      {"measurement": "plant injury at 62 g/ha", "setting": "spring wheat; 62 g ai/ha, scale 0-100, read-out: Plant response rating, Wheat, Spring", "value": 15, "unit": "%"},
      {"measurement": "plant injury at 125 g/ha", "setting": "spring wheat; 125 g ai/ha, scale 0-100, read-out: Plant response rating, Wheat, Spring", "value": 75, "unit": "%"},
      {"measurement": "plant injury at 250 g/ha", "setting": "spring wheat; 250 g ai/ha, scale 0-100, read-out: Plant response rating, Wheat, Spring", "value": 100, "unit": "%"},
      {"measurement": "plant injury at 31 g/ha", "setting": "winter wheat; 31 g ai/ha, scale 0 (no effect) to 100 (complete control), read-out: Plant response rating, Wheat, Winter", "value": 0, "unit": "%"},
      {"measurement": "plant injury at 62 g/ha", "setting": "winter wheat; 62 g ai/ha, scale 0-100, read-out: Plant response rating, Wheat, Winter", "value": 20, "unit": "%"},
      {"measurement": "plant injury at 125 g/ha", "setting": "winter wheat; 125 g ai/ha, scale 0-100, read-out: Plant response rating, Wheat, Winter", "value": 50, "unit": "%"},
      {"measurement": "plant injury at 250 g/ha", "setting": "winter wheat; 250 g ai/ha, scale 0-100, read-out: Plant response rating, Wheat, Winter", "value": 90, "unit": "%"},
      {"measurement": "pest or weed control at 31 g/ha", "setting": "canarygrass; 31 g ai/ha", "value": 35, "unit": "%"},
      {"measurement": "pest or weed control at 62 g/ha", "setting": "canarygrass; 62 g ai/ha", "value": 40, "unit": "%"},
      {"measurement": "pest or weed control at 125 g/ha", "setting": "canarygrass; 125 g ai/ha", "value": 50, "unit": "%"},
      {"measurement": "pest or weed control at 250 g/ha", "setting": "canarygrass; 250 g ai/ha", "value": 70, "unit": "%"},
      {"measurement": "pest or weed control at 31 g/ha", "setting": "field violet [1]; 31 g ai/ha", "value": 100, "unit": "%"},
      {"measurement": "pest or weed control at 62 g/ha", "setting": "field violet [1]; 62 g ai/ha", "value": 100, "unit": "%"},
      {"measurement": "pest or weed control at 125 g/ha", "setting": "field violet [1]; 125 g ai/ha", "value": 100, "unit": "%"},
      {"measurement": "pest or weed control at 250 g/ha", "setting": "field violet [1]; 250 g ai/ha", "value": 100, "unit": "%"},
      {"measurement": "plant injury at 31 g/ha", "setting": "oilseed rape; 31 g ai/ha", "value": 100, "unit": "%"},
      {"measurement": "plant injury at 62 g/ha", "setting": "oilseed rape; 62 g ai/ha", "value": 100, "unit": "%"},
      {"measurement": "plant injury at 125 g/ha", "setting": "oilseed rape; 125 g ai/ha", "value": 100, "unit": "%"},
      {"measurement": "plant injury at 250 g/ha", "setting": "oilseed rape; 250 g ai/ha", "value": 100, "unit": "%"},
      {"measurement": "Cocklebur plant response rating", "setting": "cocklebur; 31 g ai/ha, scale 0 to 100 (0 no effect, 100 complete control)", "value": 0},
      {"measurement": "Plant response rating, Cocklebur", "setting": "cocklebur; 125 g ai/ha", "value": 0},
      {"measurement": "Plant response rating, Cocklebur", "setting": "cocklebur; 250 g ai/ha", "value": 50},
      {"measurement": "pest or weed control at 31 g/ha", "setting": "speedwell; 31 g ai/ha, scale 0 (no effect) to 100 (complete control), read-out: Plant response rating, Speedwell", "value": 100, "unit": "%"},
      {"measurement": "pest or weed control at 62 g/ha", "setting": "speedwell; 62 g ai/ha, scale 0-100, read-out: Plant response rating, Speedwell", "value": 100, "unit": "%"},
      {"measurement": "pest or weed control at 125 g/ha", "setting": "speedwell; 125 g ai/ha, scale 0-100, read-out: Plant response rating, Speedwell", "value": 100, "unit": "%"},
      {"measurement": "pest or weed control at 250 g/ha", "setting": "speedwell; 250 g ai/ha, scale 0-100, read-out: Plant response rating, Speedwell", "value": 100, "unit": "%"},
      {"measurement": "plant response (crop injury) rating, soybean, 0-100 scale at 31 g/ha", "setting": "soybean; [3]", "value": 95, "unit": "%"},
      {"measurement": "plant response (crop injury) rating, soybean, 0-100 scale at 62 g/ha", "setting": "soybean; [4]", "value": 95, "unit": "%"},
      {"measurement": "plant response (crop injury) rating, soybean, 0-100 scale at 125 g/ha", "setting": "soybean; [5]", "value": 95, "unit": "%"},
      {"measurement": "plant response (crop injury) rating, soybean, 0-100 scale at 250 g/ha", "setting": "soybean; [6]", "value": 100, "unit": "%"},
      {"measurement": "plant response (crop injury) rating, soybean, 0-100 scale at 16 g/ha", "setting": "soybean; [7]", "value": 75, "unit": "%"},
      {"measurement": "pest or weed control at 31 g/ha", "setting": "kochia; 31 g ai/ha", "value": 95, "unit": "%"},
      {"measurement": "pest or weed control at 62 g/ha", "setting": "kochia; 62 g ai/ha", "value": 95, "unit": "%"},
      {"measurement": "pest or weed control at 125 g/ha", "setting": "kochia; 125 g ai/ha", "value": 95, "unit": "%"},
      {"measurement": "pest or weed control at 250 g/ha", "setting": "kochia; 250 g ai/ha", "value": 95, "unit": "%"},
      {"measurement": "pest or weed control at 31 g/ha", "setting": "field violet [2]; 31 g ai/ha", "value": 100, "unit": "%"},
      {"measurement": "pest or weed control at 62 g/ha", "setting": "field violet [2]; 62 g ai/ha", "value": 100, "unit": "%"},
      {"measurement": "pest or weed control at 125 g/ha", "setting": "field violet [2]; 125 g ai/ha", "value": 100, "unit": "%"},
      {"measurement": "pest or weed control at 250 g/ha", "setting": "field violet [2]; 250 g ai/ha", "value": 100, "unit": "%"},
      {"measurement": "pest or weed control at 31 g/ha", "setting": "Brazilian crabgrass; [3]", "value": 20, "unit": "%"},
      {"measurement": "pest or weed control at 62 g/ha", "setting": "Brazilian crabgrass; [4]", "value": 40, "unit": "%"},
      {"measurement": "pest or weed control at 125 g/ha", "setting": "Brazilian crabgrass; [5]", "value": 55, "unit": "%"},
      {"measurement": "pest or weed control at 250 g/ha", "setting": "Brazilian crabgrass; [6]", "value": 75, "unit": "%"},
      {"measurement": "pest or weed control at 16 g/ha", "setting": "Brazilian crabgrass; [7]", "value": 10, "unit": "%"},
      {"measurement": "pest or weed control at 31 g/ha", "setting": "barnyardgrass; [3]", "value": 5, "unit": "%"},
      {"measurement": "pest or weed control at 62 g/ha", "setting": "barnyardgrass; [4]", "value": 20, "unit": "%"},
      {"measurement": "pest or weed control at 125 g/ha", "setting": "barnyardgrass; [5]", "value": 30, "unit": "%"},
      {"measurement": "pest or weed control at 250 g/ha", "setting": "barnyardgrass; [6]", "value": 70, "unit": "%"},
      {"measurement": "pest or weed control at 16 g/ha", "setting": "barnyardgrass; [7]", "value": 0, "unit": "%"},
      {"measurement": "pest or weed control at 31 g/ha", "setting": "pigweed; 31 g ai/ha", "value": 90, "unit": "%"},
      {"measurement": "pest or weed control at 62 g/ha", "setting": "pigweed; 62 g ai/ha", "value": 100, "unit": "%"},
      {"measurement": "pest or weed control at 125 g/ha", "setting": "pigweed; 125 g ai/ha", "value": 100, "unit": "%"},
      {"measurement": "pest or weed control at 250 g/ha", "setting": "pigweed; 250 g ai/ha", "value": 100, "unit": "%"},
      {"measurement": "pest or weed control at 31 g/ha", "setting": "bluegrass; 31 g ai/ha", "value": 10, "unit": "%"},
      {"measurement": "pest or weed control at 62 g/ha", "setting": "bluegrass; 62 g ai/ha", "value": 50, "unit": "%"},
      {"measurement": "pest or weed control at 125 g/ha", "setting": "bluegrass; 125 g ai/ha", "value": 100, "unit": "%"},
      {"measurement": "pest or weed control at 250 g/ha", "setting": "bluegrass; 250 g ai/ha", "value": 100, "unit": "%"}
    ]}
  ]
}
